Measured values reported in ChEMBL document CHEMBL4033736, “A new type of pharmacological chaperone for GM1-gangliosidosis related human lysosomal β-galactosidase: N-Substituted 5-amino-1-hydroxymethyl-cyclopentanetriols” (Bioorg Med Chem Lett, 2017).
Changes are numbered by the printed parent chain. Activity calls are given as the source filed them. The calls are words filed in the database; no cut-off is given here.

System: T1, Beta-galactosidase (Homo sapiens), P16278 [R201C]
T1 sequence (whole entry): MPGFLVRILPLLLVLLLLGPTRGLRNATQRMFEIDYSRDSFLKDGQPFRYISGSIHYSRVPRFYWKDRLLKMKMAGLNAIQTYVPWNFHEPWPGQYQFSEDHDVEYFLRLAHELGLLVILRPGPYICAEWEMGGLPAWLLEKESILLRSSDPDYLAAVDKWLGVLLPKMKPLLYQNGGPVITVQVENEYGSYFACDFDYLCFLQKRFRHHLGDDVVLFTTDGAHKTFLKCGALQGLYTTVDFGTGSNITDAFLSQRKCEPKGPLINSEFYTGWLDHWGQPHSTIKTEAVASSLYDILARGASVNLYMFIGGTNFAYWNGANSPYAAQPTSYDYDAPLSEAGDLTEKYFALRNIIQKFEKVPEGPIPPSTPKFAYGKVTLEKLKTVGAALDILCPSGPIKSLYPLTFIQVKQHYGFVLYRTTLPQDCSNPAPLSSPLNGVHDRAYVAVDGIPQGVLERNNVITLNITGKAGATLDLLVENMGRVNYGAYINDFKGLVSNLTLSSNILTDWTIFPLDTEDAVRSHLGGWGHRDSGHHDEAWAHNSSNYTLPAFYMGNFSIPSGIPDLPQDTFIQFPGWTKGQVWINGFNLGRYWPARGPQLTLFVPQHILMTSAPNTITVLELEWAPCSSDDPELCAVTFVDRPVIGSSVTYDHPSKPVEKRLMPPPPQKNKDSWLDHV
Experiment: Inhibition of beta-galactosidase R201C mutant isolated from human patient fibroblasts at 1 uM using 4-nitrophenyl beta-D-galactopyranoside as substrat

SMILES	inhibition
NCCCCCCN[C@H]1[C@H](O)[C@@H](O)[C@@H](O)[C@H]1CO	Active

Target: not listed separately
Experiment: Competitive inhibition of Fabrazyme (human recombinant alpha-galactosidase) using 4-nitrophenyl alpha-galactopyranoside as substrate pre-incubated for up to 5 mins before substrate addition

SMILES	Ki [µM]
CN(C)c1cccc2c(S(=O)(=O)NCCCCCCN(C)[C@H]3[C@H](O)[C@@H](O)[C@@H](O)[C@H]3CO)cccc12	> 2000
NCCCCCCN[C@H]1[C@H](O)[C@@H](O)[C@@H](O)[C@H]1CO	> 2000
N#CCCCCCN[C@H]1[C@H](O)[C@@H](O)[C@@H](O)[C@H]1CO	> 2000
CCCCCCCCN[C@@H]1C=C(CO)[C@H](O)[C@H](O)[C@H]1O	> 2000
CN(C)c1cccc2c(S(=O)(=O)NCCCCCCN[C@H]3[C@H](O)[C@@H](O)[C@@H](O)[C@H]3CO)cccc12	238
OC[C@@H]1[C@H](O)[C@H](O)[C@@H](O)[C@@H]1N1CCCC1	> 2000
N#CCCCN[C@H]1[C@H](O)[C@@H](O)[C@@H](O)[C@H]1CO	> 2000

System: T1, Beta-galactosidase (Homo sapiens), P16278 [R201C]
Experiment: Chaperone activity at beta-galactosidase R201C mutant isolated from human patient fibroblasts assessed as increase in enzyme activity at 10 uM using 4-nitrophenyl beta-D-galactopyranoside as substrate relative to untreated control

SMILES	fold change (FC)
CN(C)c1cccc2c(S(=O)(=O)NCCCCCCN[C@H]3[C@H](O)[C@@H](O)[C@@H](O)[C@H]3CO)cccc12	7.4

System: T1, Beta-galactosidase (Homo sapiens), P16278 [R201C]
Experiment: Chaperone activity at beta-galactosidase R201C mutant isolated from human patient fibroblasts assessed as increase increase in thermal stability at 0.2 uM at 48 degC by thermal stability assay

SMILES	Activity
NCCCCCCN[C@H]1[C@H](O)[C@@H](O)[C@@H](O)[C@H]1CO	Active

Target: T2, Beta-galactosidase (Homo sapiens, UniProt P16278)
T2 sequence (P16278 whole entry): T1 sequence (whole entry) with C201R
Experiment: Competitive inhibition of human fibroblast lysosomal beta-galactosidase using 4-methylumbelliferyl-beta-D-galactopyranoside as substrate pre-incubated for up to 5 mins before substrate addition and measured after 30 mins

SMILES	Ki [µM]
NCCCCCCN[C@H]1[C@H](O)[C@@H](O)[C@@H](O)[C@H]1CO	9.2
CCCCCCCCN[C@@H]1C=C(CO)[C@H](O)[C@H](O)[C@H]1O	0.51
CN(C)c1cccc2c(S(=O)(=O)NCCCCCCN[C@H]3[C@H](O)[C@@H](O)[C@@H](O)[C@H]3CO)cccc12	0.29

System: T1, Beta-galactosidase (Homo sapiens), P16278 [R201C]
Experiment: Chaperone activity at beta-galactosidase R201C mutant isolated from human patient fibroblasts assessed as increase in enzyme activity at 0.05 uM using 4-nitrophenyl beta-D-galactopyranoside as substrate relative to untreated control

SMILES	fold change (FC)
NCCCCCCN[C@H]1[C@H](O)[C@@H](O)[C@@H](O)[C@H]1CO	4

Target: not listed separately
Experiment: Competitive inhibition of Saccharomyces cerevisiae alpha-glucosidase using 4-nitrophenyl alpha-[…] as substrate pre-incubated for up to 5 mins before substrate addition

SMILES	Ki [µM]
CN(C)c1cccc2c(S(=O)(=O)NCCCCCCN(C)[C@H]3[C@H](O)[C@@H](O)[C@@H](O)[C@H]3CO)cccc12	> 2000
NCCCCCCN[C@H]1[C@H](O)[C@@H](O)[C@@H](O)[C@H]1CO	> 2000
N#CCCCCCN[C@H]1[C@H](O)[C@@H](O)[C@@H](O)[C@H]1CO	> 2000
CCCCCCCCN[C@@H]1C=C(CO)[C@H](O)[C@H](O)[C@H]1O	> 2000
CN(C)c1cccc2c(S(=O)(=O)NCCCCCCN[C@H]3[C@H](O)[C@@H](O)[C@@H](O)[C@H]3CO)cccc12	> 2000
OC[C@@H]1[C@H](O)[C@H](O)[C@@H](O)[C@@H]1N1CCCC1	> 2000
N#CCCCN[C@H]1[C@H](O)[C@@H](O)[C@@H](O)[C@H]1CO	> 2000

System: T1, Beta-galactosidase (Homo sapiens), P16278 [R201C]
Experiment: Chaperone activity at beta-galactosidase R201C mutant isolated from human patient fibroblasts assessed as increase in enzyme activity at 0.1 uM using 4-nitrophenyl beta-D-galactopyranoside as substrate relative to untreated control

SMILES	fold change (FC)
CN(C)c1cccc2c(S(=O)(=O)NCCCCCCN[C@H]3[C@H](O)[C@@H](O)[C@@H](O)[C@H]3CO)cccc12	4

System: not listed separately
Experiment: Competitive inhibition of Escherichia coli lacZ beta-galactosidase using 4-nitrophenyl beta-D-galactopyranoside as substrate pre-incubated for up to 5 mins before substrate addition

SMILES	Ki [µM]
CN(C)c1cccc2c(S(=O)(=O)NCCCCCCN(C)[C@H]3[C@H](O)[C@@H](O)[C@@H](O)[C@H]3CO)cccc12	0.016
NCCCCCCN[C@H]1[C@H](O)[C@@H](O)[C@@H](O)[C@H]1CO	16
N#CCCCCCN[C@H]1[C@H](O)[C@@H](O)[C@@H](O)[C@H]1CO	0.13
CCCCCCCCN[C@@H]1C=C(CO)[C@H](O)[C@H](O)[C@H]1O	2.8
CN(C)c1cccc2c(S(=O)(=O)NCCCCCCN[C@H]3[C@H](O)[C@@H](O)[C@@H](O)[C@H]3CO)cccc12	0.01
OC[C@@H]1[C@H](O)[C@H](O)[C@@H](O)[C@@H]1N1CCCC1	33
N#CCCCN[C@H]1[C@H](O)[C@@H](O)[C@@H](O)[C@H]1CO	0.068

Target: T3, Beta-galactosidase (Bos taurus, UniProt Q58D55)
T3 sequence (Q58D55 whole entry): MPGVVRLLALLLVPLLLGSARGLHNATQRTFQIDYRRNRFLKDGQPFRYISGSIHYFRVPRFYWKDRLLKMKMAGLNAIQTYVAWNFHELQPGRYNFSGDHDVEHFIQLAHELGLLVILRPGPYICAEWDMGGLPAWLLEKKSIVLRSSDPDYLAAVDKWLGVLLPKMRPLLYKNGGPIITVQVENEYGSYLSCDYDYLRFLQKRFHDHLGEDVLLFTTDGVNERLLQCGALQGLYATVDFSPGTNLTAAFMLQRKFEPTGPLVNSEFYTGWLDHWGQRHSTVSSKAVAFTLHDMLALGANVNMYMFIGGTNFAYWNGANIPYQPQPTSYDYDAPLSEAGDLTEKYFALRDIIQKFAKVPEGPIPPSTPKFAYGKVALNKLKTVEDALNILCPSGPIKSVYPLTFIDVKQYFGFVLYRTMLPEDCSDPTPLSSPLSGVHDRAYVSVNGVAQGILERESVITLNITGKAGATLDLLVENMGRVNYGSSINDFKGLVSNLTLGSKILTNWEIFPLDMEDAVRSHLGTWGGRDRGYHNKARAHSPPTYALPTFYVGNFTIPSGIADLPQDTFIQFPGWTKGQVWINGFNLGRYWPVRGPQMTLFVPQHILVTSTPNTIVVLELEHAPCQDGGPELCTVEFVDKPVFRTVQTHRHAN
Experiment: Competitive inhibition of Bovine liver beta-galactosidase using 4-nitrophenyl beta-D-galactopyranoside as substrate pre-incubated for up to 5 mins before substrate addition

SMILES	Ki [µM]
NCCCCCCN[C@H]1[C@H](O)[C@@H](O)[C@@H](O)[C@H]1CO	31
N#CCCCCCN[C@H]1[C@H](O)[C@@H](O)[C@@H](O)[C@H]1CO	0.11
CN(C)c1cccc2c(S(=O)(=O)NCCCCCCN[C@H]3[C@H](O)[C@@H](O)[C@@H](O)[C@H]3CO)cccc12	0.0053
N#CCCCN[C@H]1[C@H](O)[C@@H](O)[C@@H](O)[C@H]1CO	0.13

System: T1, Beta-galactosidase (Homo sapiens), P16278 [R201C]
Experiment: Chaperone activity at beta-galactosidase R201C mutant isolated from human patient fibroblasts assessed as increase in enzyme activity at 0.2 uM using 4-nitrophenyl beta-D-galactopyranoside as substrate relative to untreated control

SMILES	fold change (FC)
NCCCCCCN[C@H]1[C@H](O)[C@@H](O)[C@@H](O)[C@H]1CO	5

System: T1, Beta-galactosidase (Homo sapiens), P16278 [R201C]
Experiment: Chaperone activity at beta-galactosidase R201C mutant isolated from human patient fibroblasts assessed as increase in enzyme activity at 1 uM using 4-nitrophenyl beta-D-galactopyranoside as substrate relative to untreated control

SMILES	Activity	fold change (FC)
NCCCCCCN[C@H]1[C@H](O)[C@@H](O)[C@@H](O)[C@H]1CO	inactive	–
CN(C)c1cccc2c(S(=O)(=O)NCCCCCCN[C@H]3[C@H](O)[C@@H](O)[C@@H](O)[C@H]3CO)cccc12	–	6

Target: T4, Lysosomal acid glucosylceramidase (Homo sapiens, UniProt P04062)
T4 sequence (P04062 whole entry): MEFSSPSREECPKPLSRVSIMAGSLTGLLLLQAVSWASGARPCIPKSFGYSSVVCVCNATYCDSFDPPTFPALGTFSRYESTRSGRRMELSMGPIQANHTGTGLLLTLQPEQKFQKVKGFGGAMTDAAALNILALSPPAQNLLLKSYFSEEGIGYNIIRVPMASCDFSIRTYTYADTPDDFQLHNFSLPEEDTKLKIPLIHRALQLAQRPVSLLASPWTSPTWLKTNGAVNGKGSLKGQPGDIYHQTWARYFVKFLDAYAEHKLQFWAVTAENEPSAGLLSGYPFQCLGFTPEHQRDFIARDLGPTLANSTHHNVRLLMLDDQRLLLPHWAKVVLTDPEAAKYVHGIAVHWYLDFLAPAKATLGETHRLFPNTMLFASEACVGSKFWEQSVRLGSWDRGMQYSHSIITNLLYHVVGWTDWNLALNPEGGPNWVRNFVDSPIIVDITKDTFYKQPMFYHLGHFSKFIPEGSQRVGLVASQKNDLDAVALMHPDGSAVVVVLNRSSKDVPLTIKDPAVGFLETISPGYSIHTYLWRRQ
Experiment: Competitive inhibition of recombinant beta-glucocerebrosidase (unknown origin) using 4-nitrophenyl beta-D-[…] as substrate pre-incubated for up to 5 mins before substrate addition

SMILES	Ki [µM]
CN(C)c1cccc2c(S(=O)(=O)NCCCCCCN(C)[C@H]3[C@H](O)[C@@H](O)[C@@H](O)[C@H]3CO)cccc12	0.001
NCCCCCCN[C@H]1[C@H](O)[C@@H](O)[C@@H](O)[C@H]1CO	54.2
N#CCCCCCN[C@H]1[C@H](O)[C@@H](O)[C@@H](O)[C@H]1CO	10.7
CCCCCCCCN[C@@H]1C=C(CO)[C@H](O)[C@H](O)[C@H]1O	83
CN(C)c1cccc2c(S(=O)(=O)NCCCCCCN[C@H]3[C@H](O)[C@@H](O)[C@@H](O)[C@H]3CO)cccc12	0.019
OC[C@@H]1[C@H](O)[C@H](O)[C@@H](O)[C@@H]1N1CCCC1	123
N#CCCCN[C@H]1[C@H](O)[C@@H](O)[C@@H](O)[C@H]1CO	10.3

Target: not listed separately
Experiment: Competitive inhibition of Agrobacterium sp. beta-glucosidase using 4-nitrophenyl beta-D-galactopyranoside as substrate pre-incubated for up to 5 mins before substrate addition

SMILES	Ki [µM]
CN(C)c1cccc2c(S(=O)(=O)NCCCCCCN(C)[C@H]3[C@H](O)[C@@H](O)[C@@H](O)[C@H]3CO)cccc12	0.0028
NCCCCCCN[C@H]1[C@H](O)[C@@H](O)[C@@H](O)[C@H]1CO	0.096
N#CCCCCCN[C@H]1[C@H](O)[C@@H](O)[C@@H](O)[C@H]1CO	0.006
CCCCCCCCN[C@@H]1C=C(CO)[C@H](O)[C@H](O)[C@H]1O	7.7
CN(C)c1cccc2c(S(=O)(=O)NCCCCCCN[C@H]3[C@H](O)[C@@H](O)[C@@H](O)[C@H]3CO)cccc12	0.0012
OC[C@@H]1[C@H](O)[C@H](O)[C@@H](O)[C@@H]1N1CCCC1	1.8
N#CCCCN[C@H]1[C@H](O)[C@@H](O)[C@@H](O)[C@H]1CO	0.0024
